{"source": "paper PMC7710018", "about": "“Restoration of motor learning in a mouse model of Rett syndrome following long-term treatment with a novel small-molecule activator of TrkB” (Disease Models & Mechanisms, 2020)", "key": {"[1]": {"test_system": "rat model of traumatic brain injury", "design": "method as in Massa et al., 2010", "settings": "ref Massa et al., 2010; cited from earlier work"}, "M3 (h)": {"biological_target": "T1, M3 (h) (Homo sapiens, UniProt P20309)", "T1 construct": "purchased Cerep (ExpresSProfile)", "T1 sequence (P20309 whole entry)": "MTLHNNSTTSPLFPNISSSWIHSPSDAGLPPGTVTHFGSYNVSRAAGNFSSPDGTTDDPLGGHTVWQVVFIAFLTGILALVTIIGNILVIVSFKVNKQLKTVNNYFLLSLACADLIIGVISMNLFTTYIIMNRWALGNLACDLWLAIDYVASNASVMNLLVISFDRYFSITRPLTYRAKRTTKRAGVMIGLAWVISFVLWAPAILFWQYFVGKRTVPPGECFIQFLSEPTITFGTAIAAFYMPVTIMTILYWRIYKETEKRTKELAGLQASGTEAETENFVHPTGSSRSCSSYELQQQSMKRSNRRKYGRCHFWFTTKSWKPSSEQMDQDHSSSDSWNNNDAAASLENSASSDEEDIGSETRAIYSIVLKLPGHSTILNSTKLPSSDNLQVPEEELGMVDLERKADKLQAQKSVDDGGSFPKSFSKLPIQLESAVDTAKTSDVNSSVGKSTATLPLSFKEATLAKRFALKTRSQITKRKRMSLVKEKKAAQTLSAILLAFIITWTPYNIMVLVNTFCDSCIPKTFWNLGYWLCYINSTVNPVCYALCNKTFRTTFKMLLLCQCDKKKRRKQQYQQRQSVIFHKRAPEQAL", "test": "Cerep ExpresSProfile radioligand binding", "settings": "10 micromolar; antagonist radioligand; read-out: % Inhibition of Control Specific Binding 2nd", "method": "(§1) To evaluate the relative binding specificity of LM22A-4 ([Massa et al., 2010]) and PTX-BD4-3, binding to a broad range of 55 pharmacologically relevant receptors, including numerous neurotransmitter and G-protein coupled receptors was assessed using standard radioligand competition binding assays (ExpressSProfile) performed by Cerep, Inc. (Seattle, WA, USA). In addition, ADME-Tox analysis was performed by Cerep, Inc. All experimental conditions are described on the Cerep website (www.cerep.fr). […]\n(§2) Table S1. In vitro binding assays. An ExpresSProfile screen of PTX-BD4-3 binding to a panel of pharmacologically relevant receptors was conducted by Cerep, Inc.\n(§3) (Eurofins Panlabs, MO). The results are expressed as percent inhibition of control specific binding obtained in the presence of 10 micromolar PTX-BD4-3. In this assay, values below 50% indicate no specific binding of PTX-BD4-3. The assay was negative for PTX-BD4-3 binding to all of the 55 receptors in the screen.\n(§4) (also on this page, place not known: 2B 5‐HT 3 5‐HT 5a 5‐HT 6 5‐HT 7 (agonis t VPAC 1 V 1 Ca 2+ K V SK Ca Na + Cl ‐ 5‐HT Disease Models & Mechanisms: doi:10.1242/dmm.044685: Supplementary information Disease Models & Mechanisms • Supplementary information)"}, "α2 (non-selective)": {"test_system": "α2 (non-selective)", "test": "Cerep ExpresSProfile radioligand binding", "settings": "10 micromolar; antagonist radioligand", "method": "as §1, §2, §3, §4"}, "κ (KOP)": {"biological_target": "T2, κ (KOP) (Rattus norvegicus, UniProt P34975)", "T2 construct": "purchased Cerep (ExpresSProfile)", "T2 sequence (P34975 whole entry)": "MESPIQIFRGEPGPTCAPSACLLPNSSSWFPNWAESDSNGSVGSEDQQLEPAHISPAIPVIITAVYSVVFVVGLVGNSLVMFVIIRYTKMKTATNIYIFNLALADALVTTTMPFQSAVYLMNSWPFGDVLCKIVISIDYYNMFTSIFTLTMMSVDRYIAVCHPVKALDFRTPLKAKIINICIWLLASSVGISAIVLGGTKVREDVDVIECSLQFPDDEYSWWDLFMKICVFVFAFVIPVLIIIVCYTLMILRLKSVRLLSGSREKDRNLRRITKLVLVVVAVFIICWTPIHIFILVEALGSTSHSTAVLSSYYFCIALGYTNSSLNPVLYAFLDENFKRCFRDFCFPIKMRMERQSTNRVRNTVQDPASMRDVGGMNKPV", "test": "Cerep ExpresSProfile radioligand binding", "settings": "10 micromolar; agonist radioligand; read-out: % Inhibition of Control Specific Binding 1st", "method": "as §1, §2, §3, §4"}, "Cl- channel (GABA-gated)": {"test_system": "Cl- channel (GABA-gated)", "test": "Cerep ExpresSProfile radioligand binding", "settings": "10 micromolar; antagonist radioligand", "method": "as §1, §2, §3, §4"}, "α1 (non-selective)": {"test_system": "α1 (non-selective)", "test": "Cerep ExpresSProfile radioligand binding", "settings": "10 micromolar; antagonist radioligand", "method": "as §1, §2, §3, §4"}, "NTS1 (NT1) (h)": {"biological_target": "T3, NTS1 (NT1) (h) (Homo sapiens, UniProt P30989)", "T3 construct": "purchased Cerep (ExpresSProfile)", "T3 sequence (P30989 whole entry)": "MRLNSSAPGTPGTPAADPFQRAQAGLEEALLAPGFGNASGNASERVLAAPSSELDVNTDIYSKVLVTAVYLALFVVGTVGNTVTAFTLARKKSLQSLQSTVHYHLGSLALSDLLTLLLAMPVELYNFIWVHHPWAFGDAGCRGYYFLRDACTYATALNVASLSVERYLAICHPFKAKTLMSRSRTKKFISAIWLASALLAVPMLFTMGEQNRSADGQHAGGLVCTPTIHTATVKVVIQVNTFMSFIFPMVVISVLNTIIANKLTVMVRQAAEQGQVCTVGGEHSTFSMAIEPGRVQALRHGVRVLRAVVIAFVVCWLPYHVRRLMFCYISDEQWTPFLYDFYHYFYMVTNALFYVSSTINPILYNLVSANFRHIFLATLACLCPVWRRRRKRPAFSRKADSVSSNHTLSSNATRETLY", "test": "Cerep ExpresSProfile radioligand binding", "settings": "10 micromolar, agonist radioligand", "method": "as §1, §2, §3, §4"}, "5-HT7 (h)": {"biological_target": "T4, 5-HT7 (h) (Homo sapiens, UniProt P34969)", "T4 construct": "Cerep, Inc. (contract screen)", "T4 sequence (P34969 whole entry)": "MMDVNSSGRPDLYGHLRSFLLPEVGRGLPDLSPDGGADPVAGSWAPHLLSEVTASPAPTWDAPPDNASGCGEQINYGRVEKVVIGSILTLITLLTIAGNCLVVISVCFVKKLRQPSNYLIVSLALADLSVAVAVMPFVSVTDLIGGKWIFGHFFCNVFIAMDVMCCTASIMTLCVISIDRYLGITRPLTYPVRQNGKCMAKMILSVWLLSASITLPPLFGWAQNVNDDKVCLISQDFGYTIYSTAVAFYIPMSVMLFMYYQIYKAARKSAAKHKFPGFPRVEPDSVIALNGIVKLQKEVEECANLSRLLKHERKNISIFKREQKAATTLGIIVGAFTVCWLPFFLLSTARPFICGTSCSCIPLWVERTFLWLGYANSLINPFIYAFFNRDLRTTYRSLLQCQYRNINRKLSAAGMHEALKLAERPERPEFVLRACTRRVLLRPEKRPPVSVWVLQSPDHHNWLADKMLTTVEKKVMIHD", "test": "Cerep ExpresSProfile radioligand binding", "settings": "10 micromolar, agonist radioligand", "method": "as §1, §2, §3, §4"}, "[2]": {"biological_target": "T5, norepinephrine transporter (h) (Homo sapiens, UniProt P23975)", "T5 construct": "Cerep, Inc. (contract screen)", "T5 sequence (P23975 whole entry)": "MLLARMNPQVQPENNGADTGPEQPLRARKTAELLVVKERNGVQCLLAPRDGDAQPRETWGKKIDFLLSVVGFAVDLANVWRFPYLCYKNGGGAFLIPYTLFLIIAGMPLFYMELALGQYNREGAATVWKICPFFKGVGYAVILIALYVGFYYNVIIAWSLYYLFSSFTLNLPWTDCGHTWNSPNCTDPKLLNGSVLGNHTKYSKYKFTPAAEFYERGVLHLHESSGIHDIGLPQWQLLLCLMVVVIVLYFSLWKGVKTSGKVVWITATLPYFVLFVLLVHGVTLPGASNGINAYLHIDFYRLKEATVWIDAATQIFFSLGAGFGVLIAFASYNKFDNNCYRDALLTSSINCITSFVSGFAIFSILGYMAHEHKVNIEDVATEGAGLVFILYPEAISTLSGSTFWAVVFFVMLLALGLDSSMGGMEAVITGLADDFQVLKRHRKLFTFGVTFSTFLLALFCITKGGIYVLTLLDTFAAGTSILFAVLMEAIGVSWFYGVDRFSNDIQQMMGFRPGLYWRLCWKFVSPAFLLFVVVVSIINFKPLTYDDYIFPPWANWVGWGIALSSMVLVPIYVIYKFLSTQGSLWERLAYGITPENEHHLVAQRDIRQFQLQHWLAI", "test": "Cerep ExpresSProfile radioligand binding", "settings": "10 micromolar, antagonist radioligand", "method": "as §1, §2, §3, §4"}, "[3]": {"test_system": "Ca2+ channel (L, verapamil site) (phenylalkylamine)", "test": "Cerep ExpresSProfile radioligand binding", "settings": "10 micromolar; antagonist radioligand", "method": "as §1, §2, §3, §4"}, "NK3 (h)": {"biological_target": "T6, NK3 (h) (Homo sapiens, UniProt P29371)", "T6 construct": "purchased Cerep (ExpresSProfile)", "T6 sequence (P29371 whole entry)": "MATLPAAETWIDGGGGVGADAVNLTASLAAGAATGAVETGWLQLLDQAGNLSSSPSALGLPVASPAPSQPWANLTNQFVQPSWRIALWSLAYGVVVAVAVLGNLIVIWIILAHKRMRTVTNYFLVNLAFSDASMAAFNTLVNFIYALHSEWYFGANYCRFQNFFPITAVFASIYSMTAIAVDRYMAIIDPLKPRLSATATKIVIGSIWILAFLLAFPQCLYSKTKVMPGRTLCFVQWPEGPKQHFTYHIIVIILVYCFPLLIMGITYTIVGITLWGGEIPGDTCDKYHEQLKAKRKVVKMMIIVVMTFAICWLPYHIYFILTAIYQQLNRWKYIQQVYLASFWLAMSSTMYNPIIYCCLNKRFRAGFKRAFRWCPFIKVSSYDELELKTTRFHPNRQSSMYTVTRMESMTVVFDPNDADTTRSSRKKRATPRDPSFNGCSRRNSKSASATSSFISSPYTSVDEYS", "test": "Cerep ExpresSProfile radioligand binding", "settings": "10 micromolar; antagonist radioligand; read-out: % Inhibition of Control Specific Binding 2nd", "method": "as §1, §2, §3, §4"}, "sst (non-selective)": {"test_system": "sst (non-selective)", "test": "Cerep ExpresSProfile radioligand binding", "settings": "10 micromolar; agonist radioligand", "method": "as §1, §2, §3, §4"}, "[4]": {"test_system": "heterozygous (Het) female Mecp2 mutant mice", "test": "Whole-body plethysmography (apnea index)", "type": "in vivo, mouse", "method": "Small-molecule compounds were diluted in saline and delivered by i.p. injection. To define the acute effects of single drug treatments, behavioral testing was initiated 1 h after dosing. Durable effects of single drug treatments were evaluated 24 h after dosing. To define the effects of repeated dosing, mice were treated once every 3 days (q72 h) for 4 or 8 weeks, and behavioral testing was performed 24 h after the last dose.\nBreathing was recorded in unrestrained Wt and Het mice using a whole-body plethysmograph (EMMS Systems), in which a constant bias flow supply connected to the animal recording chamber ensured continuous inflow of fresh air (1 l/min) and ambient temperature was maintained between 23°C and 25°C. Animals were allowed to acclimate in the recording chambers for 30 min, and respiratory data were collected for the next 3 h. Because respiration is strongly influenced by behavioral state, data were only analyzed from periods of quiet breathing, which was defined as periods when the animal was not moving and had all four paws on the chamber floor. In most experiments, aggregated episodes of quiet breathing totaling at least 10 min were used for analysis. […] Apneas were defined as breathing pauses longer than 2× the average total breath duration (Ttot) measured during quiet breathing and are reported here as apneas/min (apnea index)."}, "[5]": {"test_system": "heterozygous (Het) female Mecp2 mutant mice", "test": "Forelimb grip strength", "type": "in vivo, mouse", "settings": "chronic intermittent 5 mg/kg q72 h", "method": "This improvement is consistent with previous reports of motor learning in response to repeated exposure to Rotarod testing ([Buitrago et al., 2004]). […] To investigate this possibility, we evaluated Rotarod performance in additional cohorts of animals that received chronic intermittent dosing with PTX-BD4-3 and only one exposure to Rotarod testing, at the end of the 8-week treatment period (Fig. 7A).\nFig. 7. […] (A) Repeated dosing with PTX-BD4-3 (5 mg/kg, q72 h) for 8 weeks had no impact on latency to fall in animals that were tested only at the end of the 8-week treatment period. Rotarod performance was measured over three successive trials, 24 h after the last dose. n=15-16 subjects derived from two independent experiments. (B) Het mice show no deficit in forelimb grip strength compared to Wt controls, and no increase in grip strength in response to treatment with PTX-BD4-3. n=9-20 subjects derived from two independent experiments. *P<0.05, **P<0.001 compared to saline-treated Wt mice. One-way ANOVA with LSD post hoc analysis. Black, saline-treated Wt mice; gray, saline-treated Het mice; red, PTX-BD4-3-treated Het mice."}, "[6]": {"settings": "read-out: % Inhibition of Control Specific Binding 1st"}, "[7]": {"settings": "read-out: % Inhibition of Control Specific Binding 2nd"}, "[8]": {"settings": "read-out: % Inhibition of Control Specific Binding Mean"}}, "note": "Like-named read-outs stand apart in the source and are kept apart here.", "data": [{"molecule": "O=C(NCCO)c1cc(C(=O)NCCO)cc(C(=O)NCCO)c1", "note": "[LM22A-4, N,N′,N′′-tris(2-hydroxyethyl)-1,3,5-benzenetricarboxamide, reference compound]", "values": [{"measurement": "motor learning", "setting": "[1]", "value": "improve motor learning"}]}, {"molecule": "COCCN(C)C(=O)c1cc(C(=O)N(C)CCOC)cc(C(=O)N(C)CCOC)c1", "note": "[PTX-BD4-3, benzene-1,3,5-tricarboxylic acid tris-[(2-methoxy-ethyl)-methyl-amide]]", "values": [{"measurement": "inhibition at 10 µM", "setting": "M3 (h)", "value": 0.8, "unit": "%"}, {"measurement": "% Inhibition of Control Specific Binding 1st", "setting": "α2 (non-selective)", "value": 1.8, "unit": "%"}, {"measurement": "% Inhibition of Control Specific Binding 2nd", "setting": "α2 (non-selective)", "value": 4.7, "unit": "%"}, {"measurement": "% Inhibition of Control Specific Binding Mean", "setting": "α2 (non-selective)", "value": 3.2, "unit": "%"}, {"measurement": "inhibition at 10 µM", "setting": "κ (KOP)", "value": 0.9, "unit": "%"}, {"measurement": "% Inhibition of Control Specific Binding 1st", "setting": "Cl- channel (GABA-gated)", "value": 2.7, "unit": "%"}, {"measurement": "% Inhibition of Control Specific Binding 1st", "setting": "α1 (non-selective)", "value": 0.9, "unit": "%"}, {"measurement": "inhibition at 10 µM", "setting": "NTS1 (NT1) (h); [6]", "value": 11.2, "unit": "%"}, {"measurement": "inhibition at 10 µM", "setting": "NTS1 (NT1) (h); [7]", "value": 2.6, "unit": "%"}, {"measurement": "inhibition at 10 µM", "setting": "NTS1 (NT1) (h); [8]", "value": 6.9, "unit": "%"}, {"measurement": "inhibition at 10 µM", "setting": "5-HT7 (h); [6]", "value": 8.1, "unit": "%"}, {"measurement": "inhibition at 10 µM", "setting": "5-HT7 (h); [7]", "value": 14.7, "unit": "%"}, {"measurement": "inhibition at 10 µM", "setting": "5-HT7 (h); [8]", "value": 11.4, "unit": "%"}, {"measurement": "inhibition at 10 µM", "setting": "[2]; [6]", "value": 5.1, "unit": "%"}, {"measurement": "inhibition at 10 µM", "setting": "[2]; [7]", "value": 1.1, "unit": "%"}, {"measurement": "inhibition at 10 µM", "setting": "[2]; [8]", "value": 3.1, "unit": "%"}, {"measurement": "% Inhibition of Control Specific Binding 1st", "setting": "[3]", "value": 0, "unit": "%"}, {"measurement": "inhibition at 10 µM", "setting": "NK3 (h)", "value": 0.4, "unit": "%"}, {"measurement": "% Inhibition of Control Specific Binding 1st", "setting": "sst (non-selective)", "value": 5.7, "unit": "%"}, {"measurement": "% Inhibition of Control Specific Binding Mean", "setting": "sst (non-selective)", "value": 0.3, "unit": "%"}, {"measurement": "apnea index", "setting": "[4]; Het mice, 5 mg/kg i.p. q72 h for 4 weeks, 24 h after last dose, vs saline-treated Het", "value": "significantly reduced"}, {"measurement": "apnea index", "setting": "[4]; Het mice, 5 mg/kg i.p. q72 h for 8 weeks, 24 h after last dose, vs saline-treated Het", "value": "significantly reduced"}, {"measurement": "apnea index", "setting": "[4]; single dose 5 mg/kg i.p., drug-naïve mice at 24 weeks of age, 24 h after dosing", "value": "no change"}, {"measurement": "forelimb grip strength", "setting": "[5]", "value": "no gain in grip strength"}]}]}
